Assay results reported in patent publication US20050113292A1 (priority 2003, published 2005).
Values joined by “and” are separate entries in the source; they are usually repeats but may differ in a detail not shown here. Equal entries are not always repeated. Where two headings read alike, the source gives them in different places.

How the values were obtained:
[1] = tested on: HIV-1; assay type: cell-based
[2] = tested on: R9 HIV-1 virus; assay type: cell-based
[3] = tested on: HIV-1 mediated cell-cell fusion (R8 virus); details: for EC50 / IC50: mediated cell-cell fusion (R8 virus)
[4] = tested on: T-tropic (R8) HIV-1; details: for IC50: T-tropic (R8)
[5] = tested on: M-tropic (BAL) HIV-1; details: for IC50: M-tropic (BAL)
[6] = target: gp41 of HIV-1 NL4-3 (HIV-1 (NL4-3)); experiment: cell-based or functional assay
[7] = target: gp41 of M-tropic HIV-1 BAL virus (HIV-1 (BAL)); experiment: cell-based or functional assay
[8] = target: gp41 of T-tropic HIV-1 R8 virus (HIV-1 (R8)); experiment: cell-based or functional assay
[9] = target: gp41 of T20-resistant HIV-1 virus (HIV-1 (T20-resistant virus)); experiment: cell-based or functional assay
[10] = tested on: NL4-3 (MT-4)
[11] = tested on: T-20 Resistant Virus
[12] = tested on: HIV; details: human, in vivo; cited from earlier work

Compound	Neutralization (%) [1]	percentage of inhibition of cell infection ([2]; 0.01 µM)	fold increase over monomer, cell-cell fusion [3]	EC50 [3]	IC50 [3]	fold increase of potency over monomer, R8 virus [4]	IC50 [4]	fold increase of potency over monomer, BAL virus [5]	IC50 [5]	IC50, single-cycle MAGI infection of P4R5 cells, NL4-3 (MT-4) [6]	IC50, single-cycle MAGI infectivity, BAL virus [7]	IC50, HIV-1 mediated cell-cell fusion (syncytium formation), R8 virus [8]	IC50, single-cycle MAGI infectivity, R8 virus [8]	IC50, single-cycle MAGI infection of P4R5 cells, T-20 Resistant Virus [9]	percentage of inhibition of cell infection ([2]; 0.5 µM)	IC50 [10]	IC50 [11]	Ratio [11]	reduction of plasma HIV RNA levels [12]
CC[C@H](C)[C@H](NC(=O)[C@H](CC(C)C)NC(=O)[C@H](CO)NC(=O)[C@H](Cc1c[nH]cn1)NC(=O)[C@@H](NC(=O)[C@H](CC(C)C)NC(=O)[C@H](CO)NC(=O)[C@@H](NC(=O)[C@H](Cc1ccc(O)cc1)NC(=O)[C@@H]1CSC(C(=O)NCCCC[C@H](NC(=O)CCNC(=O)C2N[C@H](C(=O)N[C@@H](Cc3ccc(O)cc3)C(=O)N[C@H](C(=O)N[C@@H](CO)C(=O)N[C@@H](CC(C)C)C(=O)N[C@H](C(=O)N[C@@H](Cc3c[nH]cn3)C(=O)N[C@@H](CO)C(=O)N[C@@H](CC(C)C)C(=O)N[C@H](C(=O)N[C@@H](CCC(=O)O)C(=O)N[C@@H](CCC(=O)O)C(=O)N[C@@H](CO)C(=O)N[C@@H](CCC(N)=O)C(=O)N[C@@H](CC(N)=O)C(=O)N[C@@H](CCC(N)=O)C(=O)N[C@@H](CCC(N)=O)C(=O)N[C@@H](CCC(=O)O)C(=O)N[C@@H](CCCCN)C(=O)N[C@@H](CC(N)=O)C(=O)N[C@@H](CCC(=O)O)C(=O)N[C@@H](CCC(N)=O)C(=O)N[C@@H](CCC(=O)O)C(=O)N[C@@H](CC(C)C)C(=O)N[C@@H](CC(C)C)C(=O)N[C@@H](CCC(=O)O)C(=O)N[C@@H](CC(C)C)C(=O)N[C@@H](CC(=O)O)C(=O)N[C@@H](CCCCN)C(=O)N[C@@H](Cc3c[nH]c4ccccc34)C(=O)N[C@@H](C)C(=O)N[C@@H](CO)C(=O)N[C@@H](CC(C)C)C(=O)N[C@@H](Cc3c[nH]c4ccccc34)C(=O)N[C@@H](CC(N)=O)C(=O)N[C@@H](Cc3c[nH]c4ccccc34)C(=O)N[C@@H](Cc3ccccc3)C(=O)O)[C@@H](C)CC)[C@@H](C)CC)[C@@H](C)O)CS2)C(=O)N[C@@H](CO)C(=O)N[C@@H](CO)C(=O)N[C@@H](C)C(N)=O)N1)[C@@H](C)O)[C@@H](C)CC)C(=O)N[C@@H](CCC(=O)O)C(=O)N[C@@H](CCC(=O)O)C(=O)N[C@@H](CO)C(=O)N[C@@H](CCC(N)=O)C(=O)N[C@@H](CC(N)=O)C(=O)N[C@@H](CCC(N)=O)C(=O)N[C@@H](CCC(N)=O)C(=O)N[C@@H](CCC(=O)O)C(=O)N[C@@H](CCCCN)C(=O)N[C@@H](CC(N)=O)C(=O)N[C@@H](CCC(=O)O)C(=O)N[C@@H](CCC(N)=O)C(=O)N[C@@H](CCC(=O)O)C(=O)N[C@@H](CC(C)C)C(=O)N[C@@H](CC(C)C)C(=O)N[C@@H](CCC(=O)O)C(=O)N[C@@H](CC(C)C)C(=O)N[C@@H](CC(=O)O)C(=O)N[C@@H](CCCCN)C(=O)N[C@@H](Cc1c[nH]c2ccccc12)C(=O)N[C@@H](C)C(=O)N[C@@H](CO)C(=O)N[C@@H](CC(C)C)C(=O)N[C@@H](Cc1c[nH]c2ccccc12)C(=O)N[C@@H](CC(N)=O)C(=O)N[C@@H](Cc1c[nH]c2ccccc12)C(=O)N[C@@H](Cc1ccccc1)C(=O)O (stereo partly drawn) [Compound 2α-DP178]	<5% and 6%	~100%	122 fold	0.18 nM	0.18 nM	182 fold	0.42 nM	14 fold	0.28 nM										
CC[C@H](C)[C@H](NC(=O)[C@H](CC(C)C)NC(=O)[C@H](CO)NC(=O)[C@H](Cc1c[nH]cn1)NC(=O)[C@@H](NC(=O)[C@H](CC(C)C)NC(=O)[C@H](CO)NC(=O)[C@@H](NC(=O)[C@H](Cc1ccc(O)cc1)NC(=O)[C@H](CC(N)=O)NC(=O)[C@H](CC(N)=O)NC(=O)[C@@H](NC(=O)[C@H](CCC(=O)O)NC(=O)[C@H](CCCNC(=N)N)NC(=O)[C@H](CC(=O)O)NC(=O)[C@H](Cc1c[nH]c2ccccc12)NC(=O)[C@H](CCC(=O)O)NC(=O)[C@H](CCSC)NC(=O)[C@@H]1Cc2c([nH]c3ccccc23)C(C(=O)NCCCC[C@H](NC(=O)CCNC(=O)C2N[C@H](C(=O)N[C@@H](CCSC)C(=O)N[C@@H](CCC(=O)O)C(=O)N[C@@H](Cc3c[nH]c4ccccc34)C(=O)N[C@@H](CC(=O)O)C(=O)N[C@@H](CCCNC(=N)N)C(=O)N[C@@H](CCC(=O)O)C(=O)N[C@H](C(=O)N[C@@H](CC(N)=O)C(=O)N[C@@H](CC(N)=O)C(=O)N[C@@H](Cc3ccc(O)cc3)C(=O)N[C@H](C(=O)N[C@@H](CO)C(=O)N[C@@H](CC(C)C)C(=O)N[C@H](C(=O)N[C@@H](Cc3c[nH]cn3)C(=O)N[C@@H](CO)C(=O)N[C@@H](CC(C)C)C(=O)N[C@H](C(=O)N[C@@H](CCC(=O)O)C(=O)N[C@@H](CCC(=O)O)C(=O)N[C@@H](CO)C(=O)N[C@@H](CCC(N)=O)C(=O)N[C@@H](CC(N)=O)C(=O)N[C@@H](CCC(N)=O)C(=O)N[C@@H](CCC(N)=O)C(=O)N[C@@H](CCC(=O)O)C(=O)N[C@@H](CCCCN)C(=O)N[C@@H](CC(N)=O)C(=O)N[C@@H](CCC(=O)O)C(=O)N[C@@H](CCC(N)=O)C(=O)N[C@@H](CCC(=O)O)C(=O)N[C@@H](CC(C)C)C(=O)N[C@@H](CC(C)C)C(=O)O)[C@@H](C)CC)[C@@H](C)CC)[C@@H](C)O)[C@@H](C)CC)Cc3c2[nH]c2ccccc32)C(=O)N[C@@H](CCCCNC(=O)CNC(=O)C2N[C@H](C(=O)N[C@@H](CCSC)C(=O)N[C@@H](CCC(=O)O)C(=O)N[C@@H](Cc3c[nH]c4ccccc34)C(=O)N[C@@H](CC(=O)O)C(=O)N[C@@H](CCCNC(=N)N)C(=O)N[C@@H](CCC(=O)O)C(=O)N[C@H](C(=O)N[C@@H](CC(N)=O)C(=O)N[C@@H](CC(N)=O)C(=O)N[C@@H](Cc3ccc(O)cc3)C(=O)N[C@H](C(=O)N[C@@H](CO)C(=O)N[C@@H](CC(C)C)C(=O)N[C@H](C(=O)N[C@@H](Cc3c[nH]cn3)C(=O)N[C@@H](CO)C(=O)N[C@@H](CC(C)C)C(=O)N[C@H](C(=O)N[C@@H](CCC(=O)O)C(=O)N[C@@H](CCC(=O)O)C(=O)N[C@@H](CO)C(=O)N[C@@H](CCC(N)=O)C(=O)N[C@@H](CC(N)=O)C(=O)N[C@@H](CCC(N)=O)C(=O)N[C@@H](CCC(N)=O)C(=O)N[C@@H](CCC(=O)O)C(=O)N[C@@H](CCCCN)C(=O)N[C@@H](CC(N)=O)C(=O)N[C@@H](CCC(=O)O)C(=O)N[C@@H](CCC(N)=O)C(=O)N[C@@H](CCC(=O)O)C(=O)N[C@@H](CC(C)C)C(=O)N[C@@H](CC(C)C)C(=O)O)[C@@H](C)CC)[C@@H](C)CC)[C@@H](C)O)[C@@H](C)CC)Cc3c2[nH]c2ccccc32)C(=O)N[C@@H](CO)C(=O)N[C@@H](CO)C(=O)N[C@@H](C)C(N)=O)N1)[C@@H](C)CC)[C@@H](C)O)[C@@H](C)CC)C(=O)N[C@@H](CCC(=O)O)C(=O)N[C@@H](CCC(=O)O)C(=O)N[C@@H](CO)C(=O)N[C@@H](CCC(N)=O)C(=O)N[C@@H](CC(N)=O)C(=O)N[C@@H](CCC(N)=O)C(=O)N[C@@H](CCC(N)=O)C(=O)N[C@@H](CCC(=O)O)C(=O)N[C@@H](CCCCN)C(=O)N[C@@H](CC(N)=O)C(=O)N[C@@H](CCC(=O)O)C(=O)N[C@@H](CCC(N)=O)C(=O)N[C@@H](CCC(=O)O)C(=O)N[C@@H](CC(C)C)C(=O)N[C@@H](CC(C)C)C(=O)O (stereo partly drawn) [Compound 3α-C34]	<5%		34 fold	1 nM	1 nM	42 fold	1 nM	88 fold	0.06 nM										
DP178 (from UniProt P04578 638-673) (peptide)										4.31 nM	3.9 nM	22.1 nM	76.4 nM	32.3 nM					
enfuvirtide				22.1 nM	22.1 nM		76.4 nM		3.9 nM						~100%	4.31 nM	32.3 nM	7.50	≤ 2 logs
